In patent US20170216297A1, “EFFICIENT INHIBITION OF HSP27” (TECHNISCHE UNIVERSITAET DRESDEN, priority 2014, published 2017):

Key:
RPMI-8226 cells = test: Development of resistance to bortezomib in RPMI-8226 cells; type: cell-based; details: bortezomib 0.2-0.4 ng/ml, plus 0.75 μmol/L inhibitor
Experimental: The cell line RPMI-8226 (DMSZ 402) is a “multiple myeloma” cell line and was chosen because bortezomib is employed as a standard therapy for multiple myeloma. RPMI-8226 cells respond to bortezomib, express HSP27 and develop resistance to Velcade. RPMI-8226 cells were seeded at a cell count of 100,000 cells/ml in each case and regularly passaged. […] In contrast, for RPMI 8226 cells that were treated with 30 μmol/L BVDU, a final cell count of 160,000 cells/ml was detected whereas the final cell count for the culture without the addition of an HSP27 inhibitor amounted to 350,000 cells/ml. As a control, RPMI 8226 cells were treated with the respective test substances alone, FIG. 4b.

HSP27 = HSP27 (Homo sapiens, UniProt P04792); test: Bio-layer interferometry (ForteBio Octet Red 384, biotinylated HSP27 on SSA sensors); type: binding; details: bio-layer interferometry; read-out: KD
Chain of HSP27 (P04792 whole entry): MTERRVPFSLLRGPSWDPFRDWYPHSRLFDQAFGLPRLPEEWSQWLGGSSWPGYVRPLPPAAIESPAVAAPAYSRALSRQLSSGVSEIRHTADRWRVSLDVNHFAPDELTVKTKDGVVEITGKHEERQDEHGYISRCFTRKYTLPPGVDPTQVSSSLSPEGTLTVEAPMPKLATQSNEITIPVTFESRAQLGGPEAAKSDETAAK
Text: Bio-layer interferometry is a technique for detecting biomolecular interactions. It is an analytical technique that measures the optical interference of white light which is reflected by two surfaces: in each case, one surface consists of a layer of the immobilized target protein on the tip of the biosensor and one is an internal reference surface. The binding of ligands to the target protein alters the interference pattern and can be measured in real time.
For the measurements, an instrument of the ForteBio Octet Red 384 brand was used. The target protein HSP27 was biotinylated and bound to the appropriate sensors (SSA). […] The purine derivatives of general formula (I) or (II) pre-identified by means of in silico screening are employed for these measurements in a concentration range (KD) of between 333 μmol/L and 10 nmol/L.
For measurements by bio-layer interferometry, biotinylated HSP27 protein was first bound to Super-Streptavidin sensors (SSA, Fortebio). The loaded sensors were then incubated (“quenched”) with biocytin. As reference, unloaded SSA sensors were incubated with biocytin. In the case of a specific binding to HSP27 of the analyte to be measured, the loaded HSP27 sensor generates a stronger signal (response) than the concurrent reference sensor. After the “baseline” has been established by incubation with the reaction buffer (PBST 0.1% Tween 20 plus 3% DMSO), first the association and then the dissociation of the respective analyte is measured in real time. The analytes were measured in increasing concentrations in each case: 1.23-3.7-11.11-33.33-100-300 μM/l.

U937 cells = test: Development of resistance to bortezomib in U937 cells; type: cell-based
Experimental: For this purpose, U937 cells (histiocytic lymphoma) were cultured in DMEM culture medium (+10% FCS) at 37° C., 5% CO2 in an H2O-saturated atmosphere. 100,000 cells/ml were seeded and incubated with the cytostatic agent bortezomib (0.1 ng/ml) and the respective test substance (dosage in the current experiment: 1 μM/L acepromazine). The reference substance, BVDU, was employed at a concentration of 30 μM/L. The cells were in each case passaged before the cell count reached 1,000,000 cells/ml. At each passage, 100,000 cells/ml were again seeded and the dose of the cytostatic agent bortezomib was increased stepwise (0.1 ng/mL or 0.05 ng/mL). The concentration of the test substances remained constant. As a result of the stepwise increase in the dosage of the cytostatic agent, resistance developed in the U937 cells. The development of resistance is prevented or inhibited in the case of a positively tested HSP27 inhibitor. The experiments from Example 6 were repeated in the same way, wherein U937 cells (histiocytic lymphoma) are cultured in DMEM culture medium (+10% FCS) at 37° C., 5% CO2 in an H2O— saturated atmosphere. 100,000 cells/ml were seeded and incubated with an initial concentration of 0.2 ng/ml of the cytostatic agent bortezomib and both without an inhibitor and with acepromazine as an HSP27 inhibitor at a concentration of 1 μM/L. The reference substance, BVDU, was employed at a concentration of 30 μM/L. The cells were passaged in each case before the cell count reached 1,000,000 cells/ml. At each passage, 100,000 cells/ml were again seeded and the dose of the cytostatic agent bortezomib was increased stepwise by 0.1 ng/mL. The concentration of the test substance and the reference substance remained constant. As a result of the stepwise increase in the dosage of the cytostatic agent, resistance developed in the U937 cells. The development of resistance is prevented or inhibited in the case of a positively tested HSP27 inhibitor. The cell line U-937 is a histiocytic lymphoma (DSMZ ACC 5). This cell line also responds to treatment with bortezomib, expresses HSP27 and develops resistance to bortezomib. Bortezomib is not the standard therapy for this lymphoma, but is being discussed as a possible therapeutic agent. U-937 cells were seeded with a cell count of 100,000 cells/ml in each case and regularly passaged. […] At the end of the experiment, 70,000 living cells per ml medium could be detected. For the treatment with 30 μmol/L BVDU, a final cell count of 250,000 cells/ml was detected whereas the final cell count in the culture without the addition of an HSP27 inhibitor amounted to 450,000 cells/ml. As a control, U-937 cells were treated with the respective test substances alone, FIG. 10b.

- Kd (HSP27): 72 µM
SMILES: CC(=O)c1ccc2c(c1)N(CCCN(C)C)c1ccccc1S2 [Acepromazine]
- development of resistance to bortezomib (RPMI-8226 cells): significantly inhibited
- living cells after the end of the experiment (U937 cells; Example 6, FIG. 2: bortezomib 0.1 to 0.5 ng/ml stepwise, +1 μM inhibitor, without inhibitor 790,000 cells/ml): no living cells were detectable
- development of resistance to bortezomib (U937 cells; Example 6, FIG. 2: bortezomib 0.1 to 0.5 ng/ml, +1 μM inhibitor): no development of resistance occurred
- living cells after the end of the experiment (U937 cells; Example 7, FIG. 3: bortezomib 0.2 to 0.4 ng/ml stepwise, +1 μM inhibitor, without inhibitor 230,000 cells/ml): no living cells were detectable
- development of resistance to bortezomib (U937 cells; Example 7, FIG. 3: bortezomib 0.2 to 0.4 ng/ml, +1 μM inhibitor): no development of resistance occurred
- development of resistance to bortezomib (U937 cells; Examples 17/18: bortezomib 0.1-0.5 ng/ml, plus 0.75 μmol/L inhibitor): significantly inhibited
